Source: US9051351B2, “Hepatocyte growth factor mimics as therapeutic agents” (Washington State University, priority 2011, dated 2015)
“Also recorded” adds a separate entry of the source. Where two headings read alike, the source gives them in different places. Where a SMILES comes first, the peptide text is derived from it. [ ]: non-standard residue; d: D form. The star is where a group is joined. Hexanoyl = CCCCCC(=O)*; Ahx = NCCCCCC(=O)O

How the values were obtained:
[1] = system: hippocampal neurons; test: Whole-cell recordings of mEPSCs in dissociated hippocampal neurons; type: cell-based, rat; conditions: 10^−12 M, 5 days
[2] = Dihexa pharmacokinetics in rats (IV, intraperitoneal); type: in vivo, rat
Description: Ethics approval for animal experimentation was obtained from Washington State University.
Dihexa solutions were prepared by suspending dry stock dihexa in DMSO at 1 mg/mL and subsequent serial dilutions in 50% DMSO or HPLC grade water for the final concentrations specified. Stock dihexa is kept in powder form and stored at −20° C. Quality control (QC) samples were prepared by spiking fresh rat plasma with an appropriate dilution of dihexa for the final concentration of dihexa specified, keeping a 10:1 ratio of plasma to dihexa solution (final DMSO concentration 5%). The compounds, Nle^1-Ang-IV and Nle-YI-(6) aminohexanoic amide, molecules very similar in structure and properties to dihexa, were used as internal standards and were prepared the same way.
The proteins present in the plasma samples were precipitated using three volumes of ice-cold acetonitrile. Internal standards were then added and the samples were vortexed for approximately 10 seconds. Samples were then centrifuged at 5000 RPM for 5 minutes. The supernatants were transferred to new tubes and stored until use at −20° C. Samples were then concentrated to a volume of approximately 100 ul. 200 ul HPLC grade water was added to each sample and the samples were transferred to autosampler vials.
Male Sprague Dawley rats were catheterized as described in the Animals and Surgical Procedures section. […] The typical injection volume was 200 μL yielding an initial estimated DMSO concentration in blood of 0.46%. After dosing, blood samples were collected as described in Table 7.
The blood samples were collected into polypropylene microcentrifuge tubes and cooled on ice for not more than 1 hour. The samples were centrifuged at 5000 RPM for 7 minutes and 80 μL plasma were transferred into previously prepared tubes containing 240 μL ice-cold acetonitrile. The samples were vortexed vigorously for 30 seconds and held on ice. 100 μg/mL Nle-YI-(6) aminohexanoic amide in 10 μL was used as an internal standard and added to each sample on ice.
10 μL of each serial dilution was then added to 90 μL of blank plasma for final concentrations of 0.01, 0.02, 0.05, 0.1, 0.2, 1, 10, 20, 50 and 100 μg/mL. 80 μL of each plasma sample was transferred to previously prepared tubes containing 240 μL ice-cold acetonitrile and vortexed vigorously. 10 μL containing 100 μg/mL Nle-YI-(6) aminohexanoic amide as an internal standard, was added to each sample on ice. The standard curve plasma samples were then stored at −20° C. and further processed alongside the pharmacokinetic study samples according to the method described above.
The analytical column that was used was n C18 (100 mm×2.1 mm). The mobile phase consisted of HPLC grade acetonitrile and water with 0.1% acetic acid. […] For MS analysis, a positive ion mode (SIM) was used to monitor the m/z of dihexa at […] (dihexa with the addition of a sodium adduct) and the m/z of Nle-YI-(6) aminohexanoic amide and Nle^1-AngIV (internal standards) at 513 and 541, respectively (both with sodium adducts). Samples were introduced using the autosampler and the injection volume was 50 ul. For the microsomal study, the m/z of verapamil was 455, the m/z of piroxicam was 332, and the m/z of 7-ethoxycoumarin was 191.
Pharmacokinetic analysis was performed using data from individual rats from which the mean and standard error of the mean (SEM) were calculated for each group.

[3] = system: hippocampal neurons; test: Growth factor deprivation of dissociated hippocampal neurons; type: cell-based; conditions: starved 72 hrs +/− HGF 5 ng/ml and/or Dihexa
Description: FIG. 46. […] Dissociated hippocampal neurons were starved for 72 hrs+/−HGF at sub-threshold concentrations 5 ng/ml and or Dihexa at 2 different concentrations 10^−8M and […]. (**p<0.001,*** p<0.0001; Mean+/−SEM).

[4] = system: hippocampal neurons; test: H2O2 oxidative stress in dissociated hippocampal neurons; type: cell-based; conditions: 100 μM H2O2 24 hrs +/− HGF 5 ng/ml and/or Dihexa
Description: FIG. 47. […] Dissociated hippocampal neurons were treated with 100 μM H2O2 for 24 hrs+/−HGF at sub-threshold concentrations 5 ng/ml and or Dihexa at 2 different concentrations 10^−8M and […]. (*p<0.05,** p<0.01; Mean+/−SEM).

[5] = system: 6-OHDA lesioned rats; test: 6-OHDA lesioned rat: rope hang, gait analysis, histology; type: in vivo
Description: Three groups of rats (8 animals per group) were utilized. The first two groups were prepared with unilateral 6-OHDA lesions and members of the first group was treated with MM-201 in DMSO 100 μl:PBS 8 ml ([…]) Members of Group 2 were treated with sterile DMSO 100 μl:PBS 8 ml equivalent volumes to the weights. Members of Group 3 had only a sham surgery and served as the non-treated controls. These three groups of animals were tested on behavioral tasks the day prior to surgery and on 13 days following surgery. The tasks included rope hang, and gait analysis.
The rope hang test involved the placement of the forepaws on a hemp rope (1.0 cm in dia.) located 1 m above a basket of towels. Hang time was recorded beginning when the experimenter let go of the animal. This test was repeated 3 times/animal/test (5 minutes rest between each test) every other day.
Step gait analyses were conducted in a dark room painted black under red light. The bottoms of each rat's feet were painted with black ink (Parker Quink) and the rat was placed in a Plexiglas straight maze (length×width×height: 116×7.6×10 cm). The maze was slightly elevated at one end such that the animal's tendency was to walk up hill. White paper strips placed on the floor of the maze were used to collect the gait patterns. These ink tracks were analyzed for stride length (distance between the mid point of the fore paw and hind paw comparing left and right strides).

[6] = Blood-brain barrier penetrability study; type: in vivo, rat; conditions: carotid infusion, 30 minutes
Description: To evaluate the of ability dihexa to penetrate the BBB and accumulate in the brain rats were fitted with carotid cannulas and infused with 10 μCi of ^3H-dihexa and 2 μCi of ^14C inulin, a vascular space marker, in 100 μL of isotonic saline. Thirty minutes after infusion, brains were removed and dissected and blood samples taken. After solubilization, ^3H and ^14C were quantified by dual window scintillation counting to determine the amount of dihexa and inulin in brain and blood samples. The ratio of dihexa/inulin in blood was then used to account for any blood contamination in the various brain regions.

[7] = in vitro; conditions: male, rat, microsomes, pH 7.38
[8] = male, Sprague-Dawley, rat, plasma, IV 10 mg/kg, rats, Mean ± SEM

CCCCCC(=O)N[C@@H](Cc1ccc(O)cc1)C(=O)N[C@H](C(=O)NCCCCCC(N)=O)[C@@H](C)CC [Dihexa, N-hexanoic-Tyr-Ile-(6)-aminohexanoic amide] (Hexanoyl-Tyr-Ile-[Ahx]-NH2)
frequency of AMPA-mediated mEPSCs [1]: 4.82±0.34 Hz
increase in mEPSC frequency over control [1]: 1.6 fold
Cp0 ([2]; IV 10 mg/kg, rats, Mean ± SEM): 87.3 ± 31.9 µg/mL
KE ([2]; IV 10 mg/kg, rats, Mean ± SEM): 0.00007 ± 0.00004 min⁻¹
half-life ([2]; male, Sprague-Dawley, rat, plasma, ip, 20 mg/kg, delivered intraperitoneally, Mean+/−SEM, N=4, read-out: half-life (t1/2) (converted)): 8.83 days
half-life ([2]; male, Sprague-Dawley, rat, plasma, iv, 10 mg/kg, IV 10 mg/kg, rats, Mean ± SEM, read-out: t½): 12.7 ± 5.41 days
half-life ([2]; male, Sprague-Dawley, rat, plasma, iv, 10 mg/kg, IV administration 10 mg/kg, rats, read-out: half-life (t1/2) (converted)): 12.7 days
Vd [2, 8]: 54.4 ± 14.8 L/kg
clearance [2, 8]: 2.6 ± 0.7 mL/min/kg
AUC(0-inf) ([2]; male, Sprague-Dawley, rat, plasma, IV 10 mg/kg, rats, Mean ± SEM, N = 3): 74500 ng·h/mL
protection of neurons from growth factor deprivation [3]: act synergistically to protect neurons; also recorded: protects neurons from growth factor deprivation
protection of neurons from oxidative stress [4]: act synergistically to protect neurons; also recorded: protects neurons from oxidative stress
performance in the rope hang test ([5]; 0.5 mg/kg ip, started 2 weeks after 6-OHDA lesion): completely restores performance in the rope hang test; also recorded: completely restored the performance
motor deficits in the 6-OHDA rat ([5]; 2 mg/kg by oral gavage/48 hrs): reverses motor deficits
gait analysis ([5]; 6-OHDA lesioned rats): confirmed the recovery of normal motor function
overt toxicity ([5]; 96 day studies): no overt toxicity was noted
tyrosine hydroxylase (TH) staining in the substantia nigra ([5]; six weeks of ip Dihexa treatment): dramatic restoration of tyrosine hydroxylase (TH) staining
recovery of SN TH staining ([5]; three months of Dihexa treatment): ~100%
average 3H/14C for blood [6]: 1687
concentration of 3H-dihexa in brain regions (3H/14C ratio vs blood) ([6]; 14C-inulin vascular marker): all the brain regions examined avidly concentrated dihexa
half-life at 5 µM [7]: 0.354 days
microsomal CLint at 5 µM [7]: 2.72 µL/min/mg
